Assay results as given in ChEMBL document CHEMBL1201862, “PubChem BioAssay data set” (2004).
Active and inactive are the calls of the source.

How the values were obtained:
X-box-binding protein 1 = target: T1, X-box-binding protein 1 (Homo sapiens, UniProt P17861); type: functional, Cricetulus griseus;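 also: confirmatory dose-response counter-screen serving a CHOP assay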
T1 sequence (P17861 whole entry): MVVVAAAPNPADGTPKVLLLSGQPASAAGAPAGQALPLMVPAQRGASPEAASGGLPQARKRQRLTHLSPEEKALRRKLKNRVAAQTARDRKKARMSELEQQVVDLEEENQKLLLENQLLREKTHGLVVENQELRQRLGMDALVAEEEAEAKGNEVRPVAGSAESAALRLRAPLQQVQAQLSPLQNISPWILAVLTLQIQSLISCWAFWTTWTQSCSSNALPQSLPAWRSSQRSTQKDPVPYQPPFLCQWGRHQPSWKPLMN

[1] = inhibitors of firefly luciferase expression or activity, dose response, H4 neuroglioma cells, luminescence (AID 1990); type: functional, cell-based
[2] = test system: Streptococcus sp. 'group A'; assay: growth inhibition of control SK(-) GAS strain, dose response, counter-screen for streptokinase expression inhibitor project, luminescence, kanamycin, BacTiterGlo, confirmation (AID 1900); type: functional, organism-based
[3] = Luminescence Cell-Based Dose Response HTS to Identify Inhibitors of 5'UTR Stem-Loop Driven Prion Protein mRNA Translation in H4 Neuroglioblastoma Cells. [Related pubchem assays: 1827 (Project Summary), 1813 (Primary HTS)]; type: functional
[4] = inhibitors of SNCA 5'UTR-driven reporter translation, confirmation, H4 neuroglioma cells, luminescence (AID 1988); type: functional, cell-based
Streptococcus = assay: Group A Streptococcus viability loss, dose response, counter-screen for streptokinase expression inhibitor project, luminescence, BacTiterGlo (AID 1915); type: functional, organism-based;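 also: potency for reduction of bacterial viability or growth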
Nonstructural protein 1 = Nonstructural protein 1 (Influenza A virus, UniProt Q194T2); type: functional, Influenza A virus (A/California/07/2009(H1N1))
[5] = target: Heat shock protein HSP 90-alpha (Homo sapiens, UniProt P07900); type: functional, organism-based
INS1 = assay: beta cell apoptosis inhibitors, cytokine rescue, dose response, luminescence, retest (AID 449756); type: functional, cell-based; details: Rattus norvegicus;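 also: cell death triggered by IL-1 beta plus TNF-alpha plus IFN-gamma mixture; protective hits raise ATP signal compared with cytokine alone wells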
[6] = Shn3 3'UTR reporter inhibitors, dose response, cell-based, Clone20 osteoblasts, firefly luciferase, cherry-picked (AID 624132); type: functional;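 also: firefly luciferase luminescence from reporter carrying the Shn3 3'UTR in osteoblasts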
[7] = HepG2 cell cytotoxicity, dose response, cytotoxicity control for Shn3 inhibitor project, CellTiter-Glo, cherry-picked (AID 624134); type: functional, cell-based
[8] = control 3'UTR Renilla luciferase suppression, dose response, counter-screen for Shn3 inhibitor project, cell-based, Clone20-Shn3RL, cherry-picked (AID 624133); type: functional
[9] = target: Voltage-dependent T-type calcium channel subunit alpha-1H (Homo sapiens, UniProt O95180); type: functional;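 also: channel activity triggered by adding a high calcium stimulation buffer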
[10] = inhibitors of HIV Env-driven cell fusion, dose response, cherry-pick (AID 652057); type: functional, cell-based
[11] = ZM109 Env clade C HIV-1 fusion inhibitors, dose response, HeLa effector, CEM target cells, luciferase, cherry-pick (AID 652058); type: functional, cell-based
[12] = inhibitors of clade B AD8 Env fusion, dose response, cell-based, cherry-pick (AID 652062); type: functional;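 also: luciferase signal from cell-cell fusion driven by HIV-1 clade B AD8 Env; potency is for inhibitors of fusion seen as a drop in luminescence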
HEK293 [13] = assay: NOD1 signaling inhibitors, primary screen, cell-based, luminescence, uHTS (AID 1578); type: functional; details: Homo sapiens
HEK293 [14] = assay: cells; type: functional, cell-based; details: Homo sapiens
HEK293 [15] = assay: cells; type: functional, cell-based; details: Homo sapiens; remark: listed apart in the source
HEK293 [16] = assay: NOD2 signaling inhibitors in MDP-stimulated cells, cell-based, uHTS, luminescence (AID 2001); type: functional; details: Homo sapiens
[17] = off-target signal loss in HeLa-CEM21 co-culture – HeLa F-luc CTL cells, cherry-picked, counter-screen for HIV-1 Env fusion inhibitor project, dose response (AID 652040); type: functional, cell-based;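 also: potency for signal decrease marking cytotoxic or nonspecific inhibition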
Estrogen receptor beta [18] = target: T2, Estrogen receptor beta (Homo sapiens, UniProt Q92731);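 also: recombinant ER-beta bound to coactivator SRC1 peptide in presence of estradiol agonist; inhibitors block coactivator peptide binding and lower the FRET signal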
Estrogen receptor beta [19] = target: T2, Estrogen receptor beta; assay: ERβ–SRC-3 coactivator interaction inhibitors, confirmation, orthogonal assay, biochemical, ELISA, streptavidin-HRP readout (AID 1060)
[20] = target: Luciferin 4-monooxygenase (Photinus pyralis, UniProt P08659); assay: firefly luciferase enzyme inhibitors, dose response, biochemical, luminescence (AID 1891)
[21] = Luminescence Cell-Based Dose Confirmation HTS to Identify Inhibitors of Platelet Dense Granule Release. [Related pubchem assays: 1663 (Primary HTS), 1678 (Summary of Project)]; type: functional
BJ = assay: cytotoxicity toward Ras-transformed BJeLR fibroblasts, dose response, cell-based, alamar blue fluorescence, cherrypicked samples (AID 2631); type: functional; details: Homo sapiens;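 also: confirmatory dose-response assay in RAS-dependent BJ fibroblasts engineered with TERT, LT and ST, with cytotoxicity read by fluorescence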
[22] = target: T3, Ubiquitin-conjugating enzyme E2 N (Homo sapiens, UniProt P61088); type: functional;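 also: Dose-response confirmation in a TR-FRET assay detecting UBC13-driven polyubiquitin chain formation, inhibition measured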
T3 sequence (P61088 whole entry): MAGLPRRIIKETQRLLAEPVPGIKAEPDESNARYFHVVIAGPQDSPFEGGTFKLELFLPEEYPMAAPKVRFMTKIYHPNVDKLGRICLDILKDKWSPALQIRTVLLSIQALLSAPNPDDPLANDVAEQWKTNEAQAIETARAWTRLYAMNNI

T2 sequence (Q92731 whole entry): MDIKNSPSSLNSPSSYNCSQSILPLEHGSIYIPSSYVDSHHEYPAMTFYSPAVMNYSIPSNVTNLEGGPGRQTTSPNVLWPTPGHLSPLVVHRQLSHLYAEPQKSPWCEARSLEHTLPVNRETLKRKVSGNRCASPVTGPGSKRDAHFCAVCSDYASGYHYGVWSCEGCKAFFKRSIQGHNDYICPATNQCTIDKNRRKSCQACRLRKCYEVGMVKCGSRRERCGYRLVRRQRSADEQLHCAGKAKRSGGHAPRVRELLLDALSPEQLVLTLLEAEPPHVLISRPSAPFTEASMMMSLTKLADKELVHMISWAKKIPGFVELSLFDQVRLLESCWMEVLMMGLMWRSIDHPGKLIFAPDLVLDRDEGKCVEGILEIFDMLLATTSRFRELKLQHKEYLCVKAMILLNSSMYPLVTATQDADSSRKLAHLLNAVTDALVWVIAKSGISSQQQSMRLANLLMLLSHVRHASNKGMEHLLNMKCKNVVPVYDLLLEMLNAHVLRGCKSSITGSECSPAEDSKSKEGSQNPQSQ
Nonstructural protein 1, sequence (Q194T2 whole entry): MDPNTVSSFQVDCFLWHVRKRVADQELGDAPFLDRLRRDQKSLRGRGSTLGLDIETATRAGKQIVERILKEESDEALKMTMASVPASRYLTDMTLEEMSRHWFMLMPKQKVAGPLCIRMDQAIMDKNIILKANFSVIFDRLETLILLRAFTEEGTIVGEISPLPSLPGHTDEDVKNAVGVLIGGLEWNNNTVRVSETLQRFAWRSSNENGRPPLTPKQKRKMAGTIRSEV
Voltage-dependent T-type calcium channel subunit alpha-1H, sequence (O95180 whole entry, the tested form may be a part): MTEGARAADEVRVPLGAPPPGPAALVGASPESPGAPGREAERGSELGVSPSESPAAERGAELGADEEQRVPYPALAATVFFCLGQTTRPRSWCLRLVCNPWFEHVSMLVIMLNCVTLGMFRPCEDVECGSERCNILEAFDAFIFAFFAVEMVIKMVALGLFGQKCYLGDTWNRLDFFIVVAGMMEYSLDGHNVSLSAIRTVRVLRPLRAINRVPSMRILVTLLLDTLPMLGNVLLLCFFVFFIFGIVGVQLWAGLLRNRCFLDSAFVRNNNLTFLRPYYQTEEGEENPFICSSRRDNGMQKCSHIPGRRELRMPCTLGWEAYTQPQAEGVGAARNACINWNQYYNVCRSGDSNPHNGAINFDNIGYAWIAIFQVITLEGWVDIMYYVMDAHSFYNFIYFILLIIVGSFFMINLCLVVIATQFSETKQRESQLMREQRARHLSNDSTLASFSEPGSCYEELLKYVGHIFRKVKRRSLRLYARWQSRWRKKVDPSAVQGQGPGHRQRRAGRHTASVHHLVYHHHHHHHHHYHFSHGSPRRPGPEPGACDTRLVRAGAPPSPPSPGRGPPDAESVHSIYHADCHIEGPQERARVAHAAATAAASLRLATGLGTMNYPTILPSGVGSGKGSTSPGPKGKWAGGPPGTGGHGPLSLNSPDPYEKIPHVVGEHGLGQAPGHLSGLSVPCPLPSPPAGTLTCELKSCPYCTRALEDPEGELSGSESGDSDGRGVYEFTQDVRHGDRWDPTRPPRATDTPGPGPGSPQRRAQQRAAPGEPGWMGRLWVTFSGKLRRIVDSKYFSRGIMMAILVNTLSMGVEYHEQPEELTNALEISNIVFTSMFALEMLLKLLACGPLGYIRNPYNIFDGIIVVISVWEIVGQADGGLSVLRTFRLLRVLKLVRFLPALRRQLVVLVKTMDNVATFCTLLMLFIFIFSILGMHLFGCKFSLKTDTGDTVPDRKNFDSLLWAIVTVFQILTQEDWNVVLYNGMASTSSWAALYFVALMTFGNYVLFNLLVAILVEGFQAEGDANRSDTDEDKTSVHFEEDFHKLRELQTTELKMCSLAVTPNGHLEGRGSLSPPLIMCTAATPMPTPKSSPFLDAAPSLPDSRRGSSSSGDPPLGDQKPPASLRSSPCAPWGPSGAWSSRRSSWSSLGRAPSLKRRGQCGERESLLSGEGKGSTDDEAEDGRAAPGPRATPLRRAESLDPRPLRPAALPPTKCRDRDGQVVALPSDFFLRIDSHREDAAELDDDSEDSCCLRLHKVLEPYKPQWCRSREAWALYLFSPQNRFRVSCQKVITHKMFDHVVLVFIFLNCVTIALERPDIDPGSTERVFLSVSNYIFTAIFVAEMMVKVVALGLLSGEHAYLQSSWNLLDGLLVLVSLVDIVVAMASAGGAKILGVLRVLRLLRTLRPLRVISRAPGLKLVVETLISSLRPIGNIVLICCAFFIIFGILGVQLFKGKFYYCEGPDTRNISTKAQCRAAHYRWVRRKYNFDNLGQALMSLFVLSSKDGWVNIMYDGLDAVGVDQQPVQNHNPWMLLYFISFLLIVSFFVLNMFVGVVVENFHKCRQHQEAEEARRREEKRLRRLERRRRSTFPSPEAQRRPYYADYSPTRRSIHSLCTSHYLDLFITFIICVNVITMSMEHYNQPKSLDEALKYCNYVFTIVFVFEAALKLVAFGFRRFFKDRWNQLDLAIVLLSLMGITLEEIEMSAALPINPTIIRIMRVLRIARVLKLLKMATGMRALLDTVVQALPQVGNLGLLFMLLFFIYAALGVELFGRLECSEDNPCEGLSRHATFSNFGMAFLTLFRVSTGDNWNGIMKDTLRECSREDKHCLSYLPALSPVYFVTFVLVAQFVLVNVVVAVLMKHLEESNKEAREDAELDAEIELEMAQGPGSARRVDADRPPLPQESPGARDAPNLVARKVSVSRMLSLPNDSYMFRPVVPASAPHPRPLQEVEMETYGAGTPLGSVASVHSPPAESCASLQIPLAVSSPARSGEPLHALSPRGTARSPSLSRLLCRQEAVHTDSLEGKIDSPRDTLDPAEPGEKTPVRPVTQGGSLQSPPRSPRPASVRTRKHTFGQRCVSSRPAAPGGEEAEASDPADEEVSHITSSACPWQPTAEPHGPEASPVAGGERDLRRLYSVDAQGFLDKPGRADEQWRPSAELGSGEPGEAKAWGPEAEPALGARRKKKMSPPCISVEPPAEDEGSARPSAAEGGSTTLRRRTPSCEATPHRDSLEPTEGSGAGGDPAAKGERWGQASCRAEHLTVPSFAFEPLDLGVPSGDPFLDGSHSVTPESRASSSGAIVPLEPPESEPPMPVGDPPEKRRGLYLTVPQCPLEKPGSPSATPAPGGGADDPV
Luciferin 4-monooxygenase, sequence (P08659 whole entry): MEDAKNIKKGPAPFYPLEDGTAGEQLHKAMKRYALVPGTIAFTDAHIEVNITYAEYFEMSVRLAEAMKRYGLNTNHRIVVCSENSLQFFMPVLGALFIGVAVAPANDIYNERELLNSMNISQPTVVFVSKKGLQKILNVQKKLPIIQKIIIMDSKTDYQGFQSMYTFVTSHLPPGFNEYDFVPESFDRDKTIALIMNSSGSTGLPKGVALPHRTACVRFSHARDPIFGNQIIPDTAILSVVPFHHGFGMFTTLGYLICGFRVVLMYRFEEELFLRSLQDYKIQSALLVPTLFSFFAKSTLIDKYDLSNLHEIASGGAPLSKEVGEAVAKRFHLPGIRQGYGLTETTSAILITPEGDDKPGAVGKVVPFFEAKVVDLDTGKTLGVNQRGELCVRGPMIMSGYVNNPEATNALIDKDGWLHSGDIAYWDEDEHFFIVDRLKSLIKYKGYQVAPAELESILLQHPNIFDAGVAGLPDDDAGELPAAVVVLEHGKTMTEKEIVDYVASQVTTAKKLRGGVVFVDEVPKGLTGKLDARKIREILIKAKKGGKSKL

Cc1ccc(-n2c(O)nc3c(C(N)=O)nc(-c4ccc(C)o4)nc32)cc1
Absolute IC50 (XBP1) (X-box-binding protein 1): 10 µM

O=C(/C=C/c1ccc(F)cc1)NC(=S)NNC(=O)c1cnccn1
EC50 [1]: 11.7 µM (active)
EC50 [2]: 1.37 µM (active)
EC50 [3]: 10.5 µM (active)
EC50 [4]: > 120 µM (not active)
EC50 (Streptococcus): 2.75 µM (active)
IC50 (Nonstructural protein 1): 1.56 µM (active)
AC50 [5]: 3.35 µM (active)
AC50 (INS1): 1.21 µM (active)
AC50 [6]: 1.39 µM (active)
AC50 [7]: > 70 µM (inactive)
AC50 [8]: 2.01 µM (active)

Cc1ccc(-c2nnc(N3CCN(C(=O)COc4ccccc4)CC3)c3ccccc23)cc1
EC50 [9]: 4.54 µM (active)
AC50 [10]: 31.6 µM (active)
AC50 [11]: 13.9 µM (active)
AC50 [12]: 34.9 µM (active)

COc1ccc(NS(=O)(=O)c2ccc3c(c2)Cc2ccccc2-3)cn1
EC50 (HEK293 [13]): 5.22 µM (active)
IC50 (HEK293 [14]): 9.79 µM (active)
IC50 (HEK293 [15]): > 20 µM (inactive)
IC50 (HEK293 [16]): 8.27 µM (active)

CCC1CCc2c(sc(NC(=O)c3ccoc3C)c2C(N)=O)C1 (centres undefined)
Absolute IC50 (XBP1) (X-box-binding protein 1): 10 µM

C=C1CCN([C@@H](Cc2ccccc2)C(=O)NCCC(C)C)S(=O)(=O)c2ccccc21
AC50 [10]: 3.91 µM (active)
AC50 [11]: 3.56 µM (active)
AC50 [17]: 6.85 µM (active)
AC50 [12]: 24.1 µM (active)

COc1ccc(NC(=O)CN(c2ccccc2)S(=O)(=O)N(C)C)cc1OC
IC50 (Estrogen receptor beta [18]): 10.1 µM (active)
IC50 (Estrogen receptor beta [19]): > 109 µM (not active)

COc1ccc2nc(NC(=O)c3ccoc3C)sc2c1
EC50 [20]: 0.263 µM (active)
EC50 [21]: 0.468 µM (active)
EC50 (BJ): > 133 µM (inactive)

CCOc1ccc(C(=O)C(C)OC(=O)c2nc(Cl)ccc2Cl)cc1 (centres undefined)
IC50 [22]: > 20 µM (inactive)

CC1CCCC(C)N1CCCNC(=O)C1CCCN(c2ncnc3c2nc2n3CCCCC2)C1 (centres undefined)
IC50 [22]: > 20 µM (inactive)

N#C/C(=C\c1cccc(Oc2ccccc2)c1)C(=O)N1CCOCC1
AC50 [5]: 8.82 µM (active)

CC(C)CN(C(=O)c1ccc(S(=O)(=O)N2CCCCC2)cc1)C1CCS(=O)(=O)C1 (centres undefined)
AC50 [11]: 6.21 µM (active)
